# In PubChem BioAssay AID1918930 (Molecular Pharmacology Branch, DTP, NCI, 2023):
# “And” between values parts separate entries of the source, which are not always exact repeats. Equal entries are not always repeated.
# Test system: 233499-124-R-J3-PDC complex spheroid viability, % test/control
# Assay: Anticancer human tumor 233499-124-R-J3-PDC patient-derived colon adenocarcinoma cell line growth inhibition
# Details: for viability, T/C: stronger effect = lower value
# How it was run: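 Complex spheroids of tumor cells with HUVEC and human MSCs, exposed to iadademstat combined with other agents. Each agent tested in half-log steps from near clinical Cmax (else 10 microM top), DMSO ≤0.25%.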
# [1] = curve of first compound, second compound 0.1 µM
# [2] = curve of first compound, second compound 0.316 µM
# [3] = curve of first compound, second compound 1 µM
# [4] = curve of first compound, second compound 3.16 µM
# [5] = curve of first compound, second compound 10 µM
# [6] = second compound 0.1 µM, first compound 0.00316 µM
# [7] = second compound 0.1 µM, first compound 0.01 µM
# [8] = second compound 0.1 µM, first compound 0.0316 µM
# [9] = second compound 0.1 µM, first compound 0.1 µM
# [10] = second compound 0.316 µM, first compound 0.00316 µM
# [11] = second compound 0.316 µM, first compound 0.01 µM
# [12] = second compound 0.316 µM, first compound 0.0316 µM
# [13] = second compound 0.316 µM, first compound 0.1 µM
# [14] = second compound 1 µM, first compound 0.00316 µM
# [15] = second compound 1 µM, first compound 0.01 µM
# [16] = second compound 1 µM, first compound 0.0316 µM
# [17] = second compound 1 µM, first compound 0.1 µM
# [18] = second compound 3.16 µM, first compound 0.00316 µM
# [19] = second compound 3.16 µM, first compound 0.01 µM
# [20] = second compound 3.16 µM, first compound 0.0316 µM
# [21] = second compound 3.16 µM, first compound 0.1 µM
# [22] = second compound 10 µM, first compound 0.00316 µM
# [23] = second compound 10 µM, first compound 0.01 µM
# [24] = second compound 10 µM, first compound 0.0316 µM
# [25] = second compound 10 µM, first compound 0.1 µM
# [26] = second compound 0.1 µM, first compound 0.316 µM
# [27] = second compound 0.1 µM, first compound 1 µM
# [28] = second compound 0.316 µM, first compound 0.316 µM
# [29] = second compound 0.316 µM, first compound 1 µM
# [30] = second compound 1 µM, first compound 0.316 µM
# [31] = second compound 1 µM, first compound 1 µM
# [32] = second compound 3.16 µM, first compound 0.316 µM
# [33] = second compound 3.16 µM, first compound 1 µM
# [34] = second compound 10 µM, first compound 0.316 µM
# [35] = second compound 10 µM, first compound 1 µM
# 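Also: spheroids exposed to agents for one week before readout.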
structure (smiles),measurement,setting,value
COc1cc(C2c3cc4c(cc3C(OC3OC5COC(C)OC5C(O)C3O)C3COC(=O)C23)OCO4)cc(OC)c1O (stereo unspecified) + NC1CCC(NC2CC2c2ccccc2)CC1,IC50,[1],> 3000 nM
same,IC50,[2],> 3000 nM
same,IC50,[3],> 3000 nM
same,IC50,[4],> 3000 nM
same,IC50,[5],1290 nM
same,"viability, T/C","second compound 0.1 µM, first compound 0.00949 µM",96.6%
same,"viability, T/C","second compound 0.1 µM, first compound 0.03 µM",102%
same,"viability, T/C","second compound 0.1 µM, first compound 0.0949 µM",80.8%
same,"viability, T/C","second compound 0.1 µM, first compound 0.3 µM",88.8%
same,"viability, T/C","second compound 0.1 µM, first compound 0.949 µM",81%
same,"viability, T/C","second compound 0.1 µM, first compound 3 µM",75.5%
same,"viability, T/C","second compound 0.316 µM, first compound 0.00949 µM",119%
same,"viability, T/C","second compound 0.316 µM, first compound 0.03 µM",115%
same,"viability, T/C","second compound 0.316 µM, first compound 0.0949 µM",89%
same,"viability, T/C","second compound 0.316 µM, first compound 0.3 µM",95%
same,"viability, T/C","second compound 0.316 µM, first compound 0.949 µM",89.9%
same,"viability, T/C","second compound 0.316 µM, first compound 3 µM",73.4%
same,"viability, T/C","second compound 1 µM, first compound 0.00949 µM",97.1%
same,"viability, T/C","second compound 1 µM, first compound 0.03 µM",81.3%
same,"viability, T/C","second compound 1 µM, first compound 0.0949 µM",80.1%
same,"viability, T/C","second compound 1 µM, first compound 0.3 µM",77.3%
same,"viability, T/C","second compound 1 µM, first compound 0.949 µM",65.7%
same,"viability, T/C","second compound 1 µM, first compound 3 µM",92.2%
same,"viability, T/C","second compound 3.16 µM, first compound 0.00949 µM",91.5%
same,"viability, T/C","second compound 3.16 µM, first compound 0.03 µM",83.7%
same,"viability, T/C","second compound 3.16 µM, first compound 0.0949 µM",81.4%
same,"viability, T/C","second compound 3.16 µM, first compound 0.3 µM",65.9%
same,"viability, T/C","second compound 3.16 µM, first compound 0.949 µM",82%
same,"viability, T/C","second compound 3.16 µM, first compound 3 µM",57.6%
same,"viability, T/C","second compound 10 µM, first compound 0.00949 µM",97.1%
same,"viability, T/C","second compound 10 µM, first compound 0.03 µM",77.6%
same,"viability, T/C","second compound 10 µM, first compound 0.0949 µM",74.7%
same,"viability, T/C","second compound 10 µM, first compound 0.3 µM",60.5%
same,"viability, T/C","second compound 10 µM, first compound 0.949 µM",63.7%
same,"viability, T/C","second compound 10 µM, first compound 3 µM",36.4%
CC(C)CC(NC(=O)C(Cc1ccccc1)NC(=O)c1cnccn1)B(O)O (stereo unspecified) + NC1CCC(NC2CC2c2ccccc2)CC1,IC50,[1],2.62 nM
same,IC50,[2],2.93 nM
same,IC50,[3],2.18 nM
same,IC50,[4],1.95 nM
same,IC50,[5],2.83 nM
same,"viability, T/C","second compound 0.1 µM, first compound 0.000316 µM",105%
same,"viability, T/C","second compound 0.1 µM, first compound 0.001 µM",114%
same,"viability, T/C",[6],38.4%
same,"viability, T/C",[7],0.08%
same,"viability, T/C",[8],1.9%
same,"viability, T/C",[9],2.95%
same,"viability, T/C","second compound 0.316 µM, first compound 0.000316 µM",110%
same,"viability, T/C","second compound 0.316 µM, first compound 0.001 µM",107%
same,"viability, T/C",[10],46%
same,"viability, T/C",[11],0.06%
same,"viability, T/C",[12],0.03%
same,"viability, T/C",[13],1.83%
same,"viability, T/C","second compound 1 µM, first compound 0.000316 µM",109%
same,"viability, T/C","second compound 1 µM, first compound 0.001 µM",100%
same,"viability, T/C",[14],25.9%
same,"viability, T/C",[15],0.26%
same,"viability, T/C",[16],3.69%
same,"viability, T/C",[17],3.26%
same,"viability, T/C","second compound 3.16 µM, first compound 0.000316 µM",90.9%
same,"viability, T/C","second compound 3.16 µM, first compound 0.001 µM",94.5%
same,"viability, T/C",[18],19.2%
same,"viability, T/C",[19],0.04%
same,"viability, T/C",[20],2.68%
same,"viability, T/C",[21],0.1%
same,"viability, T/C","second compound 10 µM, first compound 0.000316 µM",87.7%
same,"viability, T/C","second compound 10 µM, first compound 0.001 µM",80.8%
same,"viability, T/C",[22],46.9%
same,"viability, T/C",[23],0.13%
same,"viability, T/C",[24],0.6%
same,"viability, T/C",[25],0.18%
Nc1ncn(C2CC(O)C(CO)O2)c(=O)n1 (stereo unspecified),"viability, T/C",compound 0.00316 µM,81% and 90.1%
same,"viability, T/C",compound 0.01 µM,88.7% and 101%
same,"viability, T/C",compound 0.0316 µM,83.8% and 87.1%
same,"viability, T/C",compound 0.1 µM,89.8% and 79.8%
same,"viability, T/C",compound 0.316 µM,106% and 94.6%
same,"viability, T/C",compound 1 µM,104% and 77.4%
same,IC50,curve of compound,> 1000 nM
Nc1ccccc1NC(=O)c1ccc(CNC(=O)OCc2cccnc2)cc1,"viability, T/C",compound 0.00949 µM,90.9% and 83.5%
same,"viability, T/C",compound 0.03 µM,101% and 93.5%
same,"viability, T/C",compound 0.0949 µM,84.8% and 81%
same,"viability, T/C",compound 0.3 µM,90% and 63.2%
same,"viability, T/C",compound 0.949 µM,28.9% and 12.3%
same,"viability, T/C",compound 3 µM,4.68% and 3.17%
same,IC50,curve of compound,637 nM and 401 nM
O=C(c1cc(Cc2n[nH]c(=O)c3ccccc23)ccc1F)N1CCN(C(=O)C2CC2)CC1 + NC1CC1c1ccc(-c2cccc(O)c2)cc1,IC50,[1],> 10000 nM
same,IC50,[2],> 10000 nM
same,IC50,[3],> 10000 nM
same,IC50,[4],> 10000 nM
same,IC50,[5],> 10000 nM
same,"viability, T/C",[8],96.9%
same,"viability, T/C",[9],92.2%
same,"viability, T/C",[26],98.5%
same,"viability, T/C",[27],97.8%
same,"viability, T/C","second compound 0.1 µM, first compound 3.16 µM",100%
same,"viability, T/C","second compound 0.1 µM, first compound 10 µM",73.2%
same,"viability, T/C",[12],94.2%
same,"viability, T/C",[13],106%
same,"viability, T/C",[28],106%
same,"viability, T/C",[29],87.2%
same,"viability, T/C","second compound 0.316 µM, first compound 3.16 µM",91.1%
same,"viability, T/C","second compound 0.316 µM, first compound 10 µM",79.3%
same,"viability, T/C",[16],78.3%
same,"viability, T/C",[17],91.6%
same,"viability, T/C",[30],91.6%
same,"viability, T/C",[31],79%
same,"viability, T/C","second compound 1 µM, first compound 3.16 µM",73.4%
same,"viability, T/C","second compound 1 µM, first compound 10 µM",68.5%
same,"viability, T/C",[20],87.6%
same,"viability, T/C",[21],83.4%
same,"viability, T/C",[32],71.6%
same,"viability, T/C",[33],84.6%
same,"viability, T/C","second compound 3.16 µM, first compound 3.16 µM",66.5%
same,"viability, T/C","second compound 3.16 µM, first compound 10 µM",63%
same,"viability, T/C",[24],77.6%
same,"viability, T/C",[25],75.1%
same,"viability, T/C",[34],71.9%
same,"viability, T/C",[35],68%
same,"viability, T/C","second compound 10 µM, first compound 3.16 µM",58.6%
same,"viability, T/C","second compound 10 µM, first compound 10 µM",62.7%
CC1COCCN1c1cc(-c2ccnn2C)c2ccnc(-c3ccn[nH]3)c2n1 (stereo unspecified) + NC1CCC(NC2CC2c2ccccc2)CC1,IC50,[1],28.5 nM
same,IC50,[2],57.7 nM
same,IC50,[3],19 nM
same,IC50,[4],22.7 nM
same,IC50,[5],17.5 nM
same,"viability, T/C",[6],86.8%
same,"viability, T/C",[7],91.9%
same,"viability, T/C",[8],46.1%
same,"viability, T/C",[9],45.4%
same,"viability, T/C",[26],25.4%
same,"viability, T/C",[27],30.7%
same,"viability, T/C",[10],101%
same,"viability, T/C",[11],79.2%
same,"viability, T/C",[12],63.8%
same,"viability, T/C",[13],39.1%
same,"viability, T/C",[28],30.1%
same,"viability, T/C",[29],33.6%
same,"viability, T/C",[14],87.3%
same,"viability, T/C",[15],71.1%
same,"viability, T/C",[16],32.8%
same,"viability, T/C",[17],33.9%
same,"viability, T/C",[30],21.9%
same,"viability, T/C",[31],28.5%
same,"viability, T/C",[18],81.1%
same,"viability, T/C",[19],71.2%
same,"viability, T/C",[20],39.9%
same,"viability, T/C",[21],30%
same,"viability, T/C",[32],18.1%
same,"viability, T/C",[33],22.2%
same,"viability, T/C",[22],79.5%
same,"viability, T/C",[23],63.5%
same,"viability, T/C",[24],35%
same,"viability, T/C",[25],27.3%
same,"viability, T/C",[34],17.8%
same,"viability, T/C",[35],23.1%
NC1CC1c1ccc(-c2cccc(O)c2)cc1 (stereo unspecified),"viability, T/C",compound 0.1 µM,91.3% and 107%
same,IC50,"compound alone, run of 02/01/2022",> 10000 nM
